For test [1], the target named is T1, Sterol O-acyltransferase 1 (Rattus norvegicus) (UniProt O70536).
T1 sequence (whole entry): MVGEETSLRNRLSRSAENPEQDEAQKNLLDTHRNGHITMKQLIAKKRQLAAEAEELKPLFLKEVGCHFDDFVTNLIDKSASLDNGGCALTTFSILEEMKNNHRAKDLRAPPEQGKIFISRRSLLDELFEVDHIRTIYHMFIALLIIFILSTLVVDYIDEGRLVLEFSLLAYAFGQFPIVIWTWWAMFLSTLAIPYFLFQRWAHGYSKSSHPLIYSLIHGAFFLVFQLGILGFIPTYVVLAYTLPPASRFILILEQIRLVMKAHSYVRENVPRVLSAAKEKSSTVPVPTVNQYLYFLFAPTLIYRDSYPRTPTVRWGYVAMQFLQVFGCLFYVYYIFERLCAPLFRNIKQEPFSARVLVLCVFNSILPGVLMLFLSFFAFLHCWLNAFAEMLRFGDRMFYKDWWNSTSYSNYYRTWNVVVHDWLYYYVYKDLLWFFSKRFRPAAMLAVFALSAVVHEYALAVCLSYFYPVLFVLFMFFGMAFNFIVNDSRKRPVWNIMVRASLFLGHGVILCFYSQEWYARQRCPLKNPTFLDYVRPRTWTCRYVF
The experiment in a line: Percent inhibition of Acyl coenzyme A:cholesterol acyltransferase at a concentration of 25(micro M) was evaluated in rat liver microsomes using ACAT microsomal assay. To be noted: Microsome. Background: Liver microsomes are vesicles of endoplasmic reticulum, rich in cytochrome P450 enzymes.

Test [2] addresses T2, Sterol O-acyltransferase 1 (Rattus norvegicus, UniProt O70536).
T2 sequence (O70536 whole entry): T1 sequence (whole entry)
The experiment in a line: Inhibitory activity was evaluated in rat liver microsomes using Acyl coenzyme A:cholesterol acyltransferase microsomal assay. Set-up: species or system Microsome.

One may read the inhibition as the drop in the measured response relative to a control, in per cent. Low values mean little suppression, high ones strong suppression. In test [1], `CCCCCCCC/C=C\CCCCCCCC(=O)N1CCc2cc(OC)c(OC)cc2C1Cc1ccccc1` (stereo unspecified) displayed an inhibition of 63%. Same read-out and setting: next, `CCCCCCCC/C=C\CCCCCCCC(=O)N1CCc2cc(O)c(O)cc2C1Cc1ccccc1` (stereo unspecified): 73%. For orientation: IC50 means the point on the concentration scale where inhibition reaches its midpoint. Read a high IC50 as a need for much substance. Compound `CCCCCCCC/C=C\CCCCCCCC(=O)N1CCc2cc(OC)c(OC)cc2C1Cc1ccc(OC)c(OC)c1` (stereo unspecified) showed an IC50 in test [2] of 2.7 µM. In test [1], this compound had an inhibition of 91%. The matching figures for `CCCCCCCC/C=C\CCCCCCCC(=O)N1CCc2ccccc2C1Cc1ccccc1` (stereo unspecified): 4.8 µM and 81%. The like results for `CCCCCCCC/C=C\CCCCCCCC(=O)N1Cc2cc(OC)c(OC)cc2CC1c1ccccc1` (stereo unspecified) were, in that order, 3.8 µM and 86%.

Compound `CCCCCCCC/C=C\CCCCCCCC(=O)NC(Cc1ccccc1)c1ccccc1` (stereo unspecified) had an IC50 in test [2] of 0.15 µM. The inhibition in test [1] stood at 87%. `CCCCCCCC/C=C\CCCCCCCC(=O)N1Cc2cc(OC)c(OC)cc2CC1c1ccc(OC)c(OC)c1` (stereo unspecified): the inhibition in test [1] came to 67%.

The record behind these values is ChEMBL document CHEMBL1127003, “N-oleoyl-1,2,3,4-tetrahydroisoquinolines as conformationally restricted inhibitors of acyl-CoA:cholesterol acyl transferase (ACAT)” (Bioorg Med Chem Lett, 1993).
